Results published in ChEMBL document CHEMBL3769391, “Identification of a new cyathane diterpene that induces mitochondrial and autophagy-dependent apoptosis and shows a potent in vivo anti-colorectal cancer activity” (Eur J Med Chem, 2016).
The source made the active and inactive calls. No cut-off for these calls is given here.

How the values were obtained:
HCT-116 [1] = assay: Induction of apoptosis in Bax deficient human HCT116 cells assessed as late apoptotic cells at 15 uM after 24 hrs by Annexin V-FITC/propidium iodide staining based flow cytometry (reference value: 1.5 to 1.56%); format: functional
HCT-116 [2] = assay: Induction of apoptosis in human HCT116 cells assessed as cytochrome C release from mitochondria to cytoplasm at 5 uM after 12 hrs by immunofluorescence assay; format: functional
Mus musculus [3] = assay: Hepatotoxicity in immune deficient nude BALB/c mouse xenografted with Bax deficient human HCT116 cells assessed as changes in alanine transaminase level in serum at 5 and 10 mg/kg, ip administered every other day for 2 weeks measured during compound dosing; format: toxicity, organism-based, HCT-116; conditions: in vivo, 336 h
[4] = Cytotoxicity against human HCT116 cells assessed as reduction in cell viability after 24 hrs by MTT assay; format: functional, cell-based; conditions: HCT-116, 24 h
HCT-116 [5] = assay: Induction of apoptosis in human HCT116 cells assessed as early apoptotic cells at 2.5 uM after 24 hrs by Annexin V-FITC/propidium iodide staining based flow cytometry (reference value: 1.06%); format: functional
HCT-116 [6] = assay: Induction of apoptosis in human HCT116 cells assessed as late apoptotic cells at 2.5 uM after 24 hrs by Annexin V-FITC/propidium iodide staining based flow cytometry (reference value: 4.54%); format: functional
HCT-116 [7] = assay: Induction of apoptosis in human HCT116 cells assessed as late apoptotic cells at 10 uM after 24 hrs by Annexin V-FITC/propidium iodide staining based flow cytometry (reference value: 4.54%); format: functional
HCT-116 [8] = assay: Induction of apoptosis in human HCT116 cells assessed as caspase activation at 5 uM after 12 hrs by CaspACEFITC-VAD-FMK staining based flow cytometry (reference value: 7.72%); format: functional
HCT-116 [9] = assay: Induction of apoptosis in human HCT116 cells assessed as apoptotic cells at 5 uM after 24 hrs by Annexin V-FITC/propidium iodide staining based flow cytometry in presence of caspase inhibitor Z-VAD-FMK; format: functional
HCT-116 [10] = assay: Induction of apoptosis in human HCT116 cells assessed as PARP cleavage at 5 uM after 6 to 24 hrs by Western blot analysis; format: functional, cell-based
HCT-116 [11] = assay: Induction of apoptosis in human HCT116 cells assessed as viable cells at 5 uM after 24 hrs by Annexin V-FITC/propidium iodide staining based flow cytometry in presence of NAC (reference value: 93.64%); format: functional; conditions: HCT-116, 24 h, read-out: Activity
HCT-116 [12] = assay: Induction of apoptosis in human HCT116 cells assessed as viable cells at 5 uM after 24 hrs by Annexin V-FITC/propidium iodide staining based flow cytometry in presence of DTT (reference value: 93.64%); format: functional; conditions: HCT-116, 24 h, read-out: Activity
HCT-116 [13] = assay: Induction of apoptosis in human HCT116 cells assessed as early apoptotic cells at 5 uM after 24 hrs by Annexin V-FITC/propidium iodide staining based flow cytometry in presence of NAC (reference value: 2.2%); format: functional
HCT-116 [14] = assay: Induction of apoptosis in human HCT116 cells assessed as late apoptotic cells at 5 uM after 24 hrs by Annexin V-FITC/propidium iodide staining based flow cytometry in presence of NAC (reference value: 3.73%); format: functional
HCT-116 [15] = assay: Induction of apoptosis in human HCT116 cells assessed as necrotic cells at 5 uM after 24 hrs by Annexin V-FITC/propidium iodide staining based flow cytometry in presence of NAC (reference value: 0.44%); format: functional
HCT-116 [16] = assay: Induction of apoptosis in human HCT116 cells assessed as increase in BimEL expression at 5 uM after 6 to 24 hrs by Western blot analysis; format: functional, cell-based
HCT-116 [17] = assay: Induction of apoptosis in human HCT116 cells assessed as increase in BimS expression at 5 uM after 6 to 24 hrs by Western blot analysis; format: functional, cell-based
HCT-116 [18] = assay: Induction of Bcl-2 expression in human HCT116 cells at 5 uM after 4 to 12 hrs by qRT-PCR method; format: functional, cell-based
[19] = Cytotoxicity against Bax deficient human HCT116 cells assessed as reduction in cell viability after 24 hrs by MTT assay; format: functional, cell-based; conditions: HCT-116, 24 h
HCT-116 [20] = assay: Induction of apoptosis in Bax deficient human HCT116 cells assessed as early apoptotic cells at 5 uM after 24 hrs by Annexin V-FITC/propidium iodide staining based flow cytometry (reference value: 1.13%); format: functional
HCT-116 [21] = assay: Induction of apoptosis in Bax deficient human HCT116 cells assessed as early apoptotic cells at 20 uM after 24 hrs by Annexin V-FITC/propidium iodide staining based flow cytometry (reference value: 1.13%); format: functional
HCT-116 [22] = assay: Induction of apoptosis in Bax deficient human HCT116 cells assessed as late apoptotic cells at 20 uM after 24 hrs by Annexin V-FITC/propidium iodide staining based flow cytometry (reference value: 1.5%); format: functional
HCT-116 [23] = assay: Induction of apoptosis in Bax deficient human HCT116 cells assessed as late apoptotic cells at 15 uM after 24 hrs by Annexin V-FITC/propidium iodide staining based flow cytometry in presence of DTT (reference value: 1.56%); format: functional
HCT-116 [24] = assay: Induction of apoptosis in Bax deficient human HCT116 cells after 24 hrs by Annexin V-FITC/propidium iodide staining based flow cytometry; format: functional, cell-based
HCT-116 [25] = assay: Induction of apoptosis in human HCT116 cells assessed as changes in Beclin-1 expression at 5 uM after 4 to 12 hrs by Western blot analysis; format: functional, cell-based
HCT-116 [26] = assay: Induction of autophagy in human HCT116 cells assessed as ATG5-ATG12 complex at 5 uM after 4 to 12 hrs by Western blot analysis; format: functional, cell-based
HCT-116 [27] = assay: Induction of apoptosis in ATG5 scramble human HCT116 cells assessed as early apoptotic cells at 5 uM after 24 hrs by Annexin V-FITC/propidium iodide staining based flow cytometry (reference value: 1.99%); format: functional
[28] = Antitumor activity against human HCT116 cells xenografted in immune deficient nude BALB/c mouse assessed as tumor growth inhibition at 5 mg/kg, ip administered every other day for 2 weeks measured after 2 weeks post last dose relative to control; format: functional; conditions: HCT-116, ip, 336 h, read-out: TGI
[29] = Antitumor activity against Bax deficient human HCT116 cells xenografted in immune deficient nude BALB/c mouse assessed as tumor growth inhibition at 5 mg/kg, ip administered every other day for 2 weeks measured after 2 weeks post last dose relative to control; format: functional; conditions: HCT-116, ip, 336 h, read-out: TGI
[30] = Antitumor activity against Bax deficient human HCT116 cells xenografted in immune deficient nude BALB/c mouse assessed as tumor growth inhibition at 10 mg/kg, ip administered every other day for 2 weeks measured after 2 weeks post last dose relative to control; format: functional; conditions: HCT-116, ip, 336 h, read-out: TGI
Mus musculus [31] = assay: Hepatotoxicity in immune deficient nude BALB/c mouse xenografted with human HCT116 cells assessed as changes in total protein level in serum at 5 and 10 mg/kg, ip administered every other day for 2 weeks measured during compound dosing; format: toxicity, organism-based, HCT-116; conditions: in vivo, 336 h
Mus musculus [32] = assay: Hepatotoxicity in immune deficient nude BALB/c mouse xenografted with human HCT116 cells assessed as changes in albumin level in serum at 5 and 10 mg/kg, ip administered every other day for 2 weeks measured during compound dosing; format: toxicity, organism-based, HCT-116; conditions: in vivo, 336 h
Mus musculus [33] = assay: Hepatotoxicity in immune deficient nude BALB/c mouse xenografted with human HCT116 cells assessed as changes in alanine transaminase level in serum at 5 and 10 mg/kg, ip administered every other day for 2 weeks measured during compound dosing; format: toxicity, organism-based, HCT-116; conditions: in vivo, 336 h

CO[C@@H]1C(C=O)=CC[C@@H]2C3=C(C(C)C)CC[C@]3(C)CC[C@@]2(C)[C@H]1O
Activity (HCT-116 [1]): 29.02%
Activity (HCT-116 [2]): Active
Activity (Mus musculus [3]): Non-toxic
IC50 [4]: 9.16 µM
Activity (HCT-116 [5]): 2.23%
Activity (HCT-116 [6]): 7.54%
Activity (HCT-116 [7]): 22.57%
Activity (HCT-116 [8]): 66.85%
Activity (HCT-116 [9]): 28.81%
Activity (HCT-116 [10]): Active
viability at 5 µM (HCT-116 [11]): 91.4%
viability at 5 µM (HCT-116 [12]): 80.8%
Activity (HCT-116 [13]): 1.35%
Activity (HCT-116 [14]): 6.46%
Activity (HCT-116 [15]): 0.81%
Activity (HCT-116 [16]): Active
Activity (HCT-116 [17]): Active
Activity (HCT-116 [18]): Active
IC50 [19]: 24.2 µM
Activity (HCT-116 [20]): 6.35%
Activity (HCT-116 [21]): 56.15%
Activity (HCT-116 [22]): 32.25%
Activity (HCT-116 [23]): 3.36%
Activity (HCT-116 [24]): Dose-dependent effect
Activity (HCT-116 [25]): inactive
Activity (HCT-116 [26]): Active
Activity (HCT-116 [27]): 15.2%
inhibition in vivo at 5 mg/kg [28]: 26%
inhibition in vivo at 5 mg/kg [29]: 25.8%
inhibition in vivo at 10 mg/kg [30]: 60.1%
Activity (Mus musculus [31]): Non-toxic
Activity (Mus musculus [32]): Non-toxic
Activity (Mus musculus [33]): Non-toxic
